The values below come from PMC11222147, “Host defence peptide plectasin targets bacterial cell wall precursor lipid II by a calcium-sensitive supramolecular mechanism” (Nature Microbiology, 2024).

The test system of this experiment is S. simulans 22. Briefly: MIC assays under standard conditions. Format: cell-based, Staphylococcus simulans. The note with it: for Minimum inhibitory concentration, S. simulans: Supplementary Table 1, 16–20 h. As for the experimental part: Plectasin and analogues were serially diluted in cation-adjusted Mueller–Hinton broth (MHB) in round-bottom polypropylene 96-well plates (50 µl per well). Selected bacterial strains were grown from glycerol stocks on blood agar plates. Individual colonies were inoculated in TSB and incubated at 37 °C while shaking until OD600 reached 0.5. Bacterial suspensions were then diluted 100 times in cation-adjusted MHB and distributed (50 μl per well) over the microplate containing the diluted plectasin solutions. Plates were covered by a gas-permeable adhesive membrane and incubated at 37 °C while shaking. MICs were determined by visual inspection after 16–20 h (Staphylococcus) or 20–24 h (Streptococcus). For Streptococcus strains, the broth was additionally supplemented with 5% lysed horse blood, and the microplates were incubated under 5% CO2 atmosphere. In the assays, we used the following strains: S. simulans, S. pneumoniae serotype 8, S. pneumoniae ATCC6305 and Streptococcus pyogenes M3.

Values after ≈ are worked out from the molar mass of the structure shown. Where a SMILES comes first, the peptide text is derived from it. Bridges are numbered along the chain shown (N, C = ends).

Regarding `CSCC[C@@H]1NC(=O)[C@H](CC(=O)O)NC(=O)[C@H](CC(=O)O)NC(=O)[C@H](CCC(=O)O)NC(=O)[C@H](CC(=O)O)NC(=O)[C@H](Cc2c[nH]c3ccccc23)NC(=O)[C@@H]2CCCN2C(=O)CNC(=O)[C@H](CC(N)=O)NC(=O)[C@@H](NC(=O)CNC(=O)[C@H](Cc2ccccc2)NC(=O)CN)CSSC[C@@H]2NC(=O)[C@H](Cc3ccc(O)cc3)NC(=O)CNC(=O)CNC(=O)[C@H](CCCCN)NC(=O)[C@H](Cc3ccc(O)cc3)NC(=O)CNC(=O)[C@H](CCCCN)NC(=O)[C@H](CC(=O)O)NC(=O)[C@H](CO)NC(=O)[C@H](CCCCN)NC(=O)[C@@H]3CSSC[C@@H](C(=O)N[C@@H](Cc4ccc(O)cc4)C(=O)O)NC(=O)[C@H](CCCCN)NC(=O)[C@H](CSSC[C@H](NC(=O)[C@H](CCC(N)=O)NC1=O)C(=O)N[C@@H](Cc1c[nH]cn1)C(=O)N[C@@H](CC(N)=O)C(=O)N[C@@H](Cc1c[nH]cn1)C(=O)N3)NC(=O)[C@H](C(C)C)NC(=O)[C@H](Cc1ccccc1)NC(=O)CNC(=O)CNC(=O)[C@H](CCCCN)NC(=O)[C@H](C)NC2=O` [I22D] (H-GFGCNGPWDEDDMQCHNHCKSDKGYKGGYCAKGGFVCKCY-OH; disulfide 4-30, 15-37, 19-39 (inferred); N-terminus and C-terminus assumed), the “Minimum inhibitory concentration, S. simulans” value (cation-adjusted MHB, 37 °C) is more than 50 µg/mL.
As to `CSCC[C@@H]1NC(=O)[C@H](CC(=O)O)NC(=O)[C@H](CC(=O)O)NC(=O)[C@H](CCC(=O)O)NC(=O)[C@H](CC(=O)O)NC(=O)[C@H](Cc2c[nH]c3ccccc23)NC(=O)[C@@H]2CCCN2C(=O)CNC(=O)[C@H](CC(N)=O)NC(=O)[C@@H](NC(=O)CNC(=O)[C@H](Cc2ccccc2)NC(=O)CN)CSSC[C@@H]2NC(=O)[C@H](Cc3ccc(O)cc3)NC(=O)CNC(=O)CNC(=O)[C@H](CCCCN)NC(=O)[C@H](Cc3ccc(O)cc3)NC(=O)CNC(=O)[C@H](CCCCN)NC(=O)[C@H](Cc3ccccc3)NC(=O)[C@H](CO)NC(=O)[C@H](CCCCN)NC(=O)[C@@H]3CSSC[C@@H](C(=O)N[C@@H](Cc4ccc(O)cc4)C(=O)O)NC(=O)[C@H](CCCCN)NC(=O)[C@H](CSSC[C@H](NC(=O)[C@H](CCC(N)=O)NC1=O)C(=O)N[C@@H](Cc1c[nH]cn1)C(=O)N[C@@H](CC(N)=O)C(=O)N[C@@H](Cc1c[nH]cn1)C(=O)N3)NC(=O)[C@H](C(C)C)NC(=O)[C@H](Cc1ccccc1)NC(=O)CNC(=O)CNC(=O)[C@H](CCCCN)NC(=O)[C@H](C)NC2=O` [I22F] (H-GFGCNGPWDEDDMQCHNHCKSFKGYKGGYCAKGGFVCKCY-OH; disulfide 4-30, 15-37, 19-39 (inferred); N-terminus and C-terminus assumed), where the note is “cation-adjusted MHB, 37 °C”, the “Minimum inhibitory concentration, S. simulans” value is more than 50 µg/mL.
Take `CSCC[C@@H]1NC(=O)[C@H](CC(=O)O)NC(=O)[C@H](CC(=O)O)NC(=O)[C@H](CCC(=O)O)NC(=O)[C@H](CC(=O)O)NC(=O)[C@H](Cc2c[nH]c3ccccc23)NC(=O)[C@@H]2CCCN2C(=O)CNC(=O)[C@H](CC(N)=O)NC(=O)[C@@H](NC(=O)CNC(=O)[C@H](Cc2ccccc2)NC(=O)CN)CSSC[C@@H]2NC(=O)[C@H](Cc3ccc(O)cc3)NC(=O)CNC(=O)CNC(=O)[C@H](CCCCN)NC(=O)[C@H](Cc3ccc(O)cc3)NC(=O)CNC(=O)[C@H](CCCCN)NC(=O)[C@H](CC(C)C)NC(=O)[C@H](CO)NC(=O)[C@H](CCCCN)NC(=O)[C@@H]3CSSC[C@@H](C(=O)N[C@@H](Cc4ccc(O)cc4)C(=O)O)NC(=O)[C@H](CCCCN)NC(=O)[C@H](CSSC[C@H](NC(=O)[C@H](CCC(N)=O)NC1=O)C(=O)N[C@@H](Cc1c[nH]cn1)C(=O)N[C@@H](CC(N)=O)C(=O)N[C@@H](Cc1c[nH]cn1)C(=O)N3)NC(=O)[C@H](C(C)C)NC(=O)[C@H](Cc1ccccc1)NC(=O)CNC(=O)CNC(=O)[C@H](CCCCN)NC(=O)[C@H](C)NC2=O` [I22L] (H-GFGCNGPWDEDDMQCHNHCKSLKGYKGGYCAKGGFVCKCY-OH; disulfide 4-30, 15-37, 19-39 (inferred); N-terminus and C-terminus assumed): the “Minimum inhibitory concentration, S. simulans” value (cation-adjusted MHB, 37 °C) was 1,56 μg/mL.
Regarding `CSCC[C@@H]1NC(=O)[C@H](CC(=O)O)NC(=O)[C@H](CC(=O)O)NC(=O)[C@H](CCC(=O)O)NC(=O)[C@H](CC(=O)O)NC(=O)[C@H](Cc2c[nH]c3ccccc23)NC(=O)[C@@H]2CCCN2C(=O)CNC(=O)[C@H](CC(N)=O)NC(=O)[C@@H](NC(=O)CNC(=O)[C@H](Cc2ccccc2)NC(=O)CN)CSSC[C@@H]2NC(=O)[C@H](Cc3ccc(O)cc3)NC(=O)CNC(=O)CNC(=O)[C@H](CCCCN)NC(=O)[C@H](Cc3ccc(O)cc3)NC(=O)CNC(=O)[C@H](CCCCN)NC(=O)[C@H](C(C)C)NC(=O)[C@H](CO)NC(=O)[C@H](CCCCN)NC(=O)[C@@H]3CSSC[C@@H](C(=O)N[C@@H](Cc4ccc(O)cc4)C(=O)O)NC(=O)[C@H](CCCCN)NC(=O)[C@H](CSSC[C@H](NC(=O)[C@H](CCC(N)=O)NC1=O)C(=O)N[C@@H](Cc1c[nH]cn1)C(=O)N[C@@H](CC(N)=O)C(=O)N[C@@H](Cc1c[nH]cn1)C(=O)N3)NC(=O)[C@H](C(C)C)NC(=O)[C@H](Cc1ccccc1)NC(=O)CNC(=O)CNC(=O)[C@H](CCCCN)NC(=O)[C@H](C)NC2=O` [I22V] (H-GFGCNGPWDEDDMQCHNHCKSVKGYKGGYCAKGGFVCKCY-OH; disulfide 4-30, 15-37, 19-39 (inferred); N-terminus and C-terminus assumed), for the setting “cation-adjusted MHB, 37 °C”, the “Minimum inhibitory concentration, S. simulans” value is given as 1,56 μg/mL.
In general, MIC refers to the lowest concentration that inhibits growth of the organism. The low end stands for inhibition by little substance, the high end for a need for much substance. Turning to `CC[C@H](C)[C@@H]1NC(=O)[C@H](CO)NC(=O)[C@H](CCCCN)NC(=O)[C@@H]2CSSC[C@@H](C(=O)N[C@@H](Cc3ccc(O)cc3)C(=O)O)NC(=O)[C@H](CCCCN)NC(=O)[C@@H]3CSSC[C@H](NC(=O)[C@H](CCC(N)=O)NC(=O)[C@H](CCSC)NC(=O)[C@H](CC(=O)O)NC(=O)[C@H](CC(=O)O)NC(=O)[C@H](CCC(=O)O)NC(=O)[C@H](CC(=O)O)NC(=O)[C@H](Cc4c[nH]c5ccccc45)NC(=O)[C@@H]4CCCN4C(=O)CNC(=O)[C@H](CC(N)=O)NC(=O)[C@@H](NC(=O)CNC(=O)[C@H](Cc4ccccc4)NC(=O)CN)CSSC[C@H](NC(=O)[C@H](Cc4ccc(O)cc4)NC(=O)CNC(=O)CNC(=O)[C@H](CCCCN)NC(=O)[C@H](Cc4ccc(O)cc4)NC(=O)CNC(=O)[C@H](C)NC1=O)C(=O)N[C@@H](C)C(=O)N[C@@H](CCCCN)C(=O)NCC(=O)NCC(=O)N[C@@H](Cc1ccccc1)C(=O)N[C@@H](C(C)C)C(=O)N3)C(=O)N[C@@H](Cc1c[nH]cn1)C(=O)N[C@@H](CC(N)=O)C(=O)N[C@@H](Cc1c[nH]cn1)C(=O)N2` [K23A] (H-GFGCNGPWDEDDMQCHNHCKSIAGYKGGYCAKGGFVCKCY-OH; disulfide 4-30, 15-37, 19-39 (inferred); N-terminus and C-terminus assumed), under “from MIC of Table 1”, the “reduction in activity vs plectasin” value is given as “fivefold to tenfold”. Also, where the note is “standard conditions, cation-adjusted MHB, 37 °C, visual inspection after 16–20 h”, the minimal inhibitory concentration (MIC) came to 6.25 µg/mL (≈ 1.44 µM).
On to `CC[C@H](C)[C@@H]1NC(=O)[C@H](CO)NC(=O)[C@H](CCCCN)NC(=O)[C@@H]2CSSC[C@@H](C(=O)N[C@@H](Cc3ccc(O)cc3)C(=O)O)NC(=O)[C@H](CCCCN)NC(=O)[C@@H]3CSSC[C@H](NC(=O)[C@H](CCC(N)=O)NC(=O)[C@H](CCSC)NC(=O)[C@H](CC(=O)O)NC(=O)[C@H](CC(=O)O)NC(=O)[C@H](CCC(=O)O)NC(=O)[C@H](CC(=O)O)NC(=O)[C@H](Cc4c[nH]c5ccccc45)NC(=O)[C@@H]4CCCN4C(=O)CNC(=O)[C@H](CC(N)=O)NC(=O)[C@@H](NC(=O)CNC(=O)[C@H](Cc4ccccc4)NC(=O)CN)CSSC[C@H](NC(=O)[C@H](Cc4ccc(O)cc4)NC(=O)CNC(=O)CNC(=O)[C@H](CCCCN)NC(=O)[C@H](Cc4c[nH]cn4)NC(=O)CNC(=O)[C@H](CCCCN)NC1=O)C(=O)N[C@@H](C)C(=O)N[C@@H](CCCCN)C(=O)NCC(=O)NCC(=O)N[C@@H](Cc1ccccc1)C(=O)N[C@@H](C(C)C)C(=O)N3)C(=O)N[C@@H](Cc1c[nH]cn1)C(=O)N[C@@H](CC(N)=O)C(=O)N[C@@H](Cc1c[nH]cn1)C(=O)N2` [Y25H] (H-GFGCNGPWDEDDMQCHNHCKSIKGHKGGYCAKGGFVCKCY-OH; disulfide 4-30, 15-37, 19-39 (inferred); N-terminus and C-terminus assumed), for which the “Minimum inhibitory concentration, S. simulans” value (cation-adjusted MHB, 37 °C) was not above 0.78 µg/mL.
On to `CC[C@H](C)[C@@H]1NC(=O)CNC(=O)[C@H](CCCCN)NC(=O)[C@H]([C@@H](C)CC)NC(=O)[C@H](CO)NC(=O)[C@H](CCCCN)NC(=O)[C@@H]2CSSC[C@@H](C(=O)N[C@@H](Cc3ccc(O)cc3)C(=O)O)NC(=O)[C@H](CCCCN)NC(=O)[C@@H]3CSSC[C@H](NC(=O)[C@H](CCC(N)=O)NC(=O)[C@H](CCSC)NC(=O)[C@H](CC(=O)O)NC(=O)[C@H](CC(=O)O)NC(=O)[C@H](CCC(=O)O)NC(=O)[C@H](CC(=O)O)NC(=O)[C@H](Cc4c[nH]c5ccccc45)NC(=O)[C@@H]4CCCN4C(=O)CNC(=O)[C@H](CC(N)=O)NC(=O)[C@@H](NC(=O)CNC(=O)[C@H](Cc4ccccc4)NC(=O)CN)CSSC[C@H](NC(=O)[C@H](Cc4ccc(O)cc4)NC(=O)CNC(=O)CNC(=O)[C@H](CCCCN)NC1=O)C(=O)N[C@@H](C)C(=O)N[C@@H](CCCCN)C(=O)NCC(=O)NCC(=O)N[C@@H](Cc1ccccc1)C(=O)N[C@@H](C(C)C)C(=O)N3)C(=O)N[C@@H](Cc1c[nH]cn1)C(=O)N[C@@H](CC(N)=O)C(=O)N[C@@H](Cc1c[nH]cn1)C(=O)N2` [Y25I] (H-GFGCNGPWDEDDMQCHNHCKSIKGIKGGYCAKGGFVCKCY-OH; disulfide 4-30, 15-37, 19-39 (inferred); N-terminus and C-terminus assumed), for which the “Minimum inhibitory concentration, S. simulans” value (cation-adjusted MHB, 37 °C) is on record as 6,25 μg/mL.
